In PubChem BioAssay (NCI):
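A five-concentration, 48-hour dose response in 96-well plates underlies each endpoint, interpolated linearly between surrounding concentrations. GI50 is the concentration that inhibits growth by half. TGI denotes the concentration required for complete inhibition of growth.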

Assays:
Experiment in all cases: growth of human tumour cells (NCI), 48 h
TK-10 renal = system: TK-10 renal
786-0 renal = system: 786-0 renal
OVCAR-4 ovarian = system: OVCAR-4 ovarian
HT29 colon = system: HT29 colon
M14 melanoma = system: M14 melanoma
MCF7 breast = system: MCF7 breast
SK-MEL-28 melanoma = system: SK-MEL-28 melanoma
MDA-MB-435 = system: MDA-MB-435
NCI-H460 lung = system: NCI-H460 lung
SR leukemia = system: SR leukemia
IGROV1 ovarian = system: IGROV1 ovarian
UACC-62 melanoma = system: UACC-62 melanoma
SW-620 colon = system: SW-620 colon
KM12 colon = system: KM12 colon
MDA-MB-231 breast = system: MDA-MB-231 breast
ACHN renal = system: ACHN renal
NCI/ADR-RES ovarian = system: NCI/ADR-RES ovarian
MOLT-4 leukemia = system: MOLT-4 leukemia
HS 578T breast = system: HS 578T breast
PC-3 prostate = system: PC-3 prostate
SF-268 CNS = system: SF-268 CNS
U251 CNS = system: U251 CNS
HOP-92 NSCLC = system: HOP-92 NSCLC
SF-539 CNS = system: SF-539 CNS
SNB-19 CNS = system: SNB-19 CNS
RXF 393 renal = system: RXF 393 renal
RPMI-8226 leukemia = system: RPMI-8226 leukemia
NCI-H226 lung = system: NCI-H226 lung
CCRF-CEM leukemia = system: CCRF-CEM leukemia
CAKI-1 renal = system: CAKI-1 renal
HOP-62 NSCLC = system: HOP-62 NSCLC
SF-295 CNS = system: SF-295 CNS
OVCAR-8 ovarian = system: OVCAR-8 ovarian
UACC-257 melanoma = system: UACC-257 melanoma
HCT-15 colon = system: HCT-15 colon
A498 renal = system: A498 renal
NCI-H23 lung = system: NCI-H23 lung
HCT-116 colon = system: HCT-116 colon
SNB-75 CNS = system: SNB-75 CNS
SK-MEL-5 melanoma = system: SK-MEL-5 melanoma
COLO 205 colon = system: COLO 205 colon
HL-60(TB) leukemia = system: HL-60(TB) leukemia
NCI-H522 lung = system: NCI-H522 lung
OVCAR-5 ovarian = system: OVCAR-5 ovarian
MALME-3M melanoma = system: MALME-3M melanoma
UO-31 renal = system: UO-31 renal
DU-145 prostate = system: DU-145 prostate
HCC-2998 colon = system: HCC-2998 colon
K-562 leukemia = system: K-562 leukemia
SN12C renal = system: SN12C renal
BT-549 breast = system: BT-549 breast
A549 NSCLC = system: A549 NSCLC
T-47D breast = system: T-47D breast
OVCAR-3 ovarian = system: OVCAR-3 ovarian
SK-MEL-2 melanoma = system: SK-MEL-2 melanoma
SK-OV-3 ovarian = system: SK-OV-3 ovarian

COc1ccc(-c2nc(Nc3cc(C)[nH]n3)c3ccccc3n2)cc1
GI50 (TK-10 renal): 865 nM | TGI (TK-10 renal): 8.11 µM | GI50 (786-0 renal): 1270 nM | TGI (786-0 renal): > 31.3 µM | GI50 (OVCAR-4 ovarian): 2340 nM | TGI (OVCAR-4 ovarian): > 72.5 µM | GI50 (HT29 colon): 1190 nM | TGI (HT29 colon): 5.15 µM | GI50 (M14 melanoma): 750 nM | TGI (M14 melanoma): 31.4 µM | GI50 (MCF7 breast): 1710 nM | TGI (MCF7 breast): 44.6 µM | GI50 (SK-MEL-28 melanoma): 5.12 µM | TGI (SK-MEL-28 melanoma): > 100 µM | GI50 (MDA-MB-435): 1300 nM | TGI (MDA-MB-435): > 100 µM | GI50 (NCI-H460 lung): 3.1 µM | TGI (NCI-H460 lung): > 100 µM | GI50 (SR leukemia): 581 nM | TGI (SR leukemia): 25.4 µM | GI50 (IGROV1 ovarian): 686 nM | TGI (IGROV1 ovarian): 7.12 µM | GI50 (UACC-62 melanoma): 2370 nM | TGI (UACC-62 melanoma): > 100 µM | GI50 (SW-620 colon): 2140 nM | TGI (SW-620 colon): > 100 µM | GI50 (KM12 colon): 99.4 nM | TGI (KM12 colon): 29.1 µM | GI50 (MDA-MB-231 breast): 4.21 µM | TGI (MDA-MB-231 breast): > 100 µM | GI50 (ACHN renal): 801 nM | TGI (ACHN renal): > 100 µM | GI50 (NCI/ADR-RES ovarian): 3.25 µM | TGI (NCI/ADR-RES ovarian): > 58.1 µM | GI50 (MOLT-4 leukemia): 3.67 µM | TGI (MOLT-4 leukemia): 58.5 µM | GI50 (HS 578T breast): 678 nM | TGI (HS 578T breast): 4.6 µM | GI50 (PC-3 prostate): 1480 nM | TGI (PC-3 prostate): 66.1 µM | GI50 (SF-268 CNS): 2420 nM | TGI (SF-268 CNS): > 59.4 µM | GI50 (U251 CNS): 1160 nM | TGI (U251 CNS): > 100 µM | GI50 (HOP-92 NSCLC): 621 nM | TGI (HOP-92 NSCLC): 3.77 µM | GI50 (SF-539 CNS): 1470 nM | TGI (SF-539 CNS): 4.15 µM | GI50 (SNB-19 CNS): 2880 nM | TGI (SNB-19 CNS): > 100 µM | GI50 (RXF 393 renal): 600 nM | TGI (RXF 393 renal): 2670 nM | GI50 (RPMI-8226 leukemia): 4.16 µM | TGI (RPMI-8226 leukemia): 28.6 µM | GI50 (NCI-H226 lung): 1620 nM | TGI (NCI-H226 lung): > 33.3 µM | GI50 (CCRF-CEM leukemia): 5.18 µM | TGI (CCRF-CEM leukemia): 66.2 µM | GI50 (CAKI-1 renal): 520 nM | TGI (CAKI-1 renal): > 64.1 µM | GI50 (HOP-62 NSCLC): 1170 nM | TGI (HOP-62 NSCLC): > 26.2 µM | GI50 (SF-295 CNS): 2610 nM | TGI (SF-295 CNS): > 71.4 µM | GI50 (OVCAR-8 ovarian): 6.16 µM | TGI (OVCAR-8 ovarian): 99.8 µM | GI50 (UACC-257 melanoma): 13 µM | TGI (UACC-257 melanoma): 65.2 µM | GI50 (HCT-15 colon): 1340 nM | TGI (HCT-15 colon): > 100 µM | GI50 (A498 renal): 271 nM | TGI (A498 renal): 1460 nM | GI50 (NCI-H23 lung): 5.47 µM | TGI (NCI-H23 lung): > 100 µM | GI50 (HCT-116 colon): 744 nM | TGI (HCT-116 colon): 17.5 µM | GI50 (SNB-75 CNS): 289 nM | TGI (SNB-75 CNS): 2270 nM | GI50 (SK-MEL-5 melanoma): 4.11 µM | TGI (SK-MEL-5 melanoma): 22.7 µM | GI50 (COLO 205 colon): 1500 nM | TGI (COLO 205 colon): 3.61 µM | GI50 (HL-60(TB) leukemia): 1580 nM | TGI (HL-60(TB) leukemia): > 35.2 µM | GI50 (NCI-H522 lung): 1670 nM | TGI (NCI-H522 lung): 19.8 µM | GI50 (OVCAR-5 ovarian): 2250 nM | TGI (OVCAR-5 ovarian): > 88 µM | GI50 (MALME-3M melanoma): 28.5 µM | TGI (MALME-3M melanoma): > 100 µM | GI50 (UO-31 renal): 529 nM | TGI (UO-31 renal): 14.9 µM | GI50 (DU-145 prostate): 3.75 µM | TGI (DU-145 prostate): > 100 µM | GI50 (HCC-2998 colon): 3.35 µM | TGI (HCC-2998 colon): > 77.4 µM | GI50 (K-562 leukemia): 3.25 µM | TGI (K-562 leukemia): > 100 µM | GI50 (SN12C renal): 2010 nM | TGI (SN12C renal): > 100 µM | GI50 (BT-549 breast): 3.07 µM | TGI (BT-549 breast): 12.6 µM | GI50 (A549 NSCLC): 2330 nM | TGI (A549 NSCLC): 44.9 µM | GI50 (T-47D breast): 1590 nM | TGI (T-47D breast): > 25.6 µM | GI50 (OVCAR-3 ovarian): 3.72 µM | TGI (OVCAR-3 ovarian): 38.8 µM | GI50 (SK-MEL-2 melanoma): 440 nM | TGI (SK-MEL-2 melanoma): 40.6 µM | GI50 (SK-OV-3 ovarian): 1390 nM | TGI (SK-OV-3 ovarian): > 100 µM
